Patent US12636299B2, “Terpenoid derivatives, pharmaceutical preparations containing these derivatives and their use in neuroprotection” (UNIVERZITA PALACKEHO V OLOMOUCI, priority 2020, dated 2026)

What was measured:
[1] = tested on: human neuron-like SH-SY5Y cells; assay: 3NPA-induced model of Huntington's disease, neuron-like SH-SY5Y cells; type: cell-based; conditions: difference to 20 mM 3NPA, 48 h
caspase-3,7 activity = assay: Caspase-3,7 activity in salsolinol-induced model of PD on SH-SY5Y (Ac-DEVD-AMC); type: cell-based, human; conditions: Homo sapiens, SH-SY5Y, percentages of control (800 μM SAL = 100), 24 hour co-treatment, read-out: Caspase-3,7 activity (% of reduction)
Description: Similarly, as shown in previous assay, cells grew on 96 multiwell plates at density 20000 cells per well underwent differentiation and treatment procedure for salsolinol model. After 24 hour co-treatment with salsolinol, caspase-3,7 (casp-3,7) activity as marker of apoptosis was quantified by its substrate Ac-DEVD-AMC according to Carrasco et al. (2003, BioTechniques, 34, 1064-1067). In this model, overall casp-3,7 activity induced by 800 μM SAL was consider as 100% and thus the reduction in casp-3,7 was observed after treatment with the protective terpenoid derivatives. As shown in Table 4 and FIG. 2, 800 μM SAL induced 2.9-fold increase.

[2] = tested on: superoxide radical formation; assay: Oxidative stress (superoxide radical formation, DHE) in 3NPA-induced model on SH-SY5Y; type: cell-based, human; conditions: 20 mM 3NPA = 100%, 24 hours
Description: Similarly, to previous assay, cells grown on 96-multiwell plates at density 20000 cells per well underwent differentiation and treatment procedure with 3-nitropropionic acid (3NPA) in this model. After 24 hours of co-treatment with 20 mM 3NPA, superoxide radical's formation as a marker of oxidative stress was quantified by dihydroethidium according to Kim et al. (2017, J. Med. Food, 20, 140-151). Briefly, neuron-like SH-SY5Y cells were centrifuged at 500 g for 5 min and 30 s, then media were replaced by 10 μM DHE PBS solution and kept at room temperature for 30 min. After that, DHE was read at 500 nm/580 nm (excitation/emission) by Infinite M200 Pro (Tecan) microplate reader. DHE is cell permeable dye which is selective for superoxide radical detection. Overall oxidative stress achieved by 20 mM 3NPA was consider as 100% and thus the reduction in superoxide radical's formation (OS reducing effect) was determined. As shown in Table 6 and FIG. 2, 20 mM 3NPA induced 2.7-fold increase in superoxide radical's formation.

[3] = tested on: human neuron-like SH-SY5Y cells; assay: 3NPA-induced model of Huntington's disease, neuron-like SH-SY5Y cells; type: cell-based; conditions: 10 μM (NAC), difference to 20 mM 3NPA, 48 h
Description: (§1) Before application of toxin 3-nitropropionic acid (3NPA) for mimicking Huntington's disease, the 3NPA was dissolved in water and neutralized by sodium hydroxide. SH-SY5Y cells were seeded in the same density and differentiated by the procedure shown above. Astrocyte cells A-172 were also seeded as described in previous section. Both cell lines were co-treated by 3NPA (20 mM for SH-SY5Y cells, […]) and tested compounds at 0.1, 1 and 10 μM concentration for 48 h.

astrocyte A-172 cells = assay: 3NPA-induced model of Huntington's disease, astrocyte A-172 cells; type: cell-based, human; conditions: difference to 10 mM 3NPA, 48 h
Description: as §1

glial A-172 cells [4] = assay: Cytotoxicity, Calcein AM viability assay on glial A-172 cells; type: cell-based, human; conditions: NAC at 1000 μM
Description: The assay was performed in 96-well microplate with 7000 SH-SY5Y cells per well. After 48 h, old DMEM/F12 media was removed by fresh media containing tested compounds at 0.1, 1 and 10 μM concentrations for 24 h. Glial cell line A-172 purchased from ATCC and grown in same conditions as SH-SY5Y cell line. […] All tested compounds dissolved in DMSO were added into the medium. The maximum concentration of DMSO in media was kept below 0.1% (v/v). The cell viability was measured by Calcein AM (1 mg/ml ThermoFisher) viability assay. Solution of Calcein AM in PBS (0.75 μM) was pipetted to cells and incubated for 50 min. After that the fluorescence was measured at 488/517 nm (excitation/emission) using microplate reader Infinite M200 (TECAN). Calcein AM assay is based on the dye-intracellular-esterase cleavage of non-fluorescent dye (Calcein AM) by living cells to fluorescent dye (Calcein), while dying cells lose such ability.

glial A-172 cells [5] = assay: as above; type: cell-based, human; conditions: 48 hours
[6] = tested on: human neuroblastoma cell line SH-SY5Y; assay: Viability of differentiated SH-SY5Y in salsolinol-induced model of PD (Calcein AM); type: cell-based; conditions: difference between 800 μM SAL and co-treatment group means, 24 hours
Description: Similarly, as in previous “Safety test”, the SH-SY5Y cells were seeded at density 7000 cells/well. After 48 h differentiation, old 1% DMEM/F12 media was replaced by fresh media containing 800 μM salsolinol (SAL) and tested compounds in 0.1, 1 and 10 μM concentrations. N-acetylcystein were chosen as positive control. After 24 hours, the cell viability was measured by Calcein AM viability assay. The values in Table 2 show % of viability of all tested compounds relative to control. The control (medium with DMSO, <0.1% (v/v)) was postulated as 100% viability (see the first line of the table), while the SAL exposure lead to decrease of viability to 65.4±0.97%.

[7] = tested on: SH-SY5Y human neuroblastoma cell line; assay: Cytotoxicity, Calcein AM viability assay on neuron-like SH-SY5Y cells; type: cell-based
Description: The SH-SY5Y human neuroblastoma cell line obtained from ECACC (The European Collection of Authenticated Cell Cultures) was cultivated in Dulbecco's modified Eagle's Medium and Ham's F12 Nutrient Mixture (DMEM:F-12, 1:1), supplemented with 10% fetal bovine serum (FBS) and 1% penicillin and streptomycin at 37° C. in a humidified atmosphere 5% CO2, 95% humidity in passage limit up to ECACC+20. The assay was performed in 96-well microplate with 7000 SH-SY5Y cells per well. After 48 h, old DMEM/F12 media was removed by fresh media containing tested compounds at 0.1, 1 and 10 μM concentrations for 24 h. Glial cell line A-172 purchased from ATCC and grown in same conditions as SH-SY5Y cell line. A-172 cells were seeded in density 2000 cells per well and growing medium was replaced by treatment medium containing tested compounds in 0.1, 1 and 10 μM concentration; or in higher concentrations for R-LA or NAC positive controls for 48 hours. All tested compounds dissolved in DMSO were added into the medium. The maximum concentration of DMSO in media was kept below 0.1% (v/v). The cell viability was measured by Calcein AM (1 mg/ml ThermoFisher) viability assay. Solution of Calcein AM in PBS (0.75 μM) was pipetted to cells and incubated for 50 min. After that the fluorescence was measured at 488/517 nm (excitation/emission) using microplate reader Infinite M200 (TECAN). Calcein AM assay is based on the dye-intracellular-esterase cleavage of non-fluorescent dye (Calcein AM) by living cells to fluorescent dye (Calcein), while dying cells lose such ability. The values in Table 2 show the % of viability compared to control for all tested compounds. The results from DMSO control (medium with DMSO, <0.1% (v/v)) was postulated as 100% viability (see the first line of Table 2).

SMILES: CC(=O)N[C@@H](CS)C(=O)O [NAC, N-acetyl cysteine, reference compound]
- Neuro-protective effect (% of control) ([1]; 100 μM (NAC)): 51.35 % of control
- Neuro-protective effect (% of control) ([1]; 1000 μM (NAC)): 65.72 % of control
- activity at 100 µM (caspase-3,7 activity; 100 μM (NAC)): 60.4%
- activity at 1000 µM (caspase-3,7 activity; 1000 μM (NAC)): 55.2%
- Superoxide radical formation (oxidative stress) % ([2]; 10 μM (NAC)): 79.6%
- Superoxide radical formation (oxidative stress) % ([2]; 100 μM (NAC)): 79.7%
- Superoxide radical formation (oxidative stress) % ([2]; 1000 μM (NAC)): 48.5%
- Neuro-protective effect (% of control) [3]: N/A (N/A = no protection)
- Astro-protective effect (% of control) (astrocyte A-172 cells; A-172, column head 0.5 μM (positive controls)): N/A (N/A = no protection)
- Astro-protective effect (% of control) (astrocyte A-172 cells; A-172, column head 5 μM (positive controls)): N/A (N/A = no protection)
- Astro-protective effect (% of control) (astrocyte A-172 cells; A-172, column head 50 μM (positive controls)): N/A (N/A = no protection)
- effect on viability of astrocytes, in words (glial A-172 cells [4]): slight decrease in percentage of living cells
- viability, percentage of DMSO control (glial A-172 cells [5]; 10 μM (NAC)): 102.9%
- viability, percentage of DMSO control (glial A-172 cells [5]; 100 μM (NAC)): 96.6%
- viability, percentage of DMSO control (glial A-172 cells [5]; 1000 μM (NAC)): 83.0%
- Neuroprotective effect (% of control) ([6]; 10 μM (NAC)): N/A (N/A = no protection)
- Neuroprotective effect (% of control) ([6]; 100 μM (NAC)): N/A (N/A = no protection)
- Neuroprotective effect (% of control) ([6]; 1000 μM (NAC)): 16.15 % of control
- viability, percentage of DMSO control ([7]; 10 μM (NAC)): 92.7%
- viability, percentage of DMSO control ([7]; 100 μM (NAC)): 97.5%
- viability, percentage of DMSO control ([7]; 1000 μM (NAC)): 101.5%
